Key:
Experiment in all cases: relative viability (nuclei count vs DMSO), 5 days (fraction); higher = more cells survive
Dovitinib + Trametinib = compound: CN1CCN(c2ccc3nc(-c4c(N)c5c(F)cccc5[nH]c4=O)[nH]c3c2)CC1 [Dovitinib] + CC(=O)Nc1cccc(-n2c(=O)n(C3CC3)c(=O)c3c(Nc4ccc(I)cc4F)n(C)c(=O)c(C)c32)c1 [Trametinib] (partner 0.02 µM)
Procedure, shortened: (§1)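 Relative viability equals treated-well nuclei counts divided by vehicle-well nuclei counts. Counts came from 4× images of lung cancer cell lines grown in 1536-well plates for 5 days after pin-tool dosing on the day after seeding. Dosing used one drug alone or a fixed anchor-drug dose plus five library-drug doses (not always all listed) in √10 steps, and values are medians of duplicate plates.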

Dovitinib + Lapatinib = compound: CN1CCN(c2ccc3nc(-c4c(N)c5c(F)cccc5[nH]c4=O)[nH]c3c2)CC1 [Dovitinib] + CS(=O)(=O)CCNCc1ccc(-c2ccc3ncnc(Nc4ccc(OCc5cccc(F)c5)c(Cl)c4)c3c2)o1 [Lapatinib] (partner 2 µM)
Procedure, shortened: as §1

Dovitinib + Phenformin = compound: CN1CCN(c2ccc3nc(-c4c(N)c5c(F)cccc5[nH]c4=O)[nH]c3c2)CC1 [Dovitinib] + N=C(N)NC(=N)NCCc1ccccc1 [Phenformin] (partner 250 µM)
Procedure, shortened: as §1

Dovitinib + Olaparib = compound: CN1CCN(c2ccc3nc(-c4c(N)c5c(F)cccc5[nH]c4=O)[nH]c3c2)CC1 [Dovitinib] + O=C(c1cc(Cc2n[nH]c(=O)c3ccccc23)ccc1F)N1CCN(C(=O)C2CC2)CC1 [Olaparib] (partner 8 µM)
Procedure, shortened: as §1

| Cell Line | relative viability (Dovitinib + Trametinib; first compound 0.02 µM) | relative viability (Dovitinib + Trametinib; first compound 0.06325 µM) | relative viability (Dovitinib + Trametinib; first compound 0.2 µM) | relative viability (Dovitinib + Trametinib; first compound 0.6325 µM) | relative viability (Dovitinib + Trametinib; first compound 2 µM) | relative viability (Dovitinib + Lapatinib; first compound 0.02 µM) | relative viability (Dovitinib + Lapatinib; first compound 0.06325 µM) | relative viability (Dovitinib + Lapatinib; first compound 0.2 µM) | relative viability (Dovitinib + Lapatinib; first compound 0.6325 µM) | relative viability (Dovitinib + Lapatinib; first compound 2 µM) | relative viability (Dovitinib + Phenformin; first compound 0.02 µM) | relative viability (Dovitinib + Phenformin; first compound 0.06325 µM) | relative viability (Dovitinib + Phenformin; first compound 0.2 µM) | relative viability (Dovitinib + Phenformin; first compound 0.6325 µM) | relative viability (Dovitinib + Phenformin; first compound 2 µM) | relative viability (Dovitinib + Olaparib; first compound 0.02 µM) | relative viability (Dovitinib + Olaparib; first compound 0.06325 µM) | relative viability (Dovitinib + Olaparib; first compound 0.2 µM) | relative viability (Dovitinib + Olaparib; first compound 0.6325 µM) | relative viability (Dovitinib + Olaparib; first compound 2 µM) |
| --- | --- | --- | --- | --- | --- | --- | --- | --- | --- | --- | --- | --- | --- | --- | --- | --- | --- | --- | --- | --- |
| LU99A | 0.534 | 0.505 | 0.541 | 0.481 | 0.557 | 0.943 | 0.985 | 1.08 | 0.937 | 0.922 | 0.814 | 0.811 | 0.926 | 0.86 | 0.864 | 0.256 | 0.279 | 0.275 | 0.276 | 0.281 |
| HCC-366 | 0.405 | 0.379 | 0.338 | 0.323 | 0.371 | 0.892 | 1.08 | 1.03 | 1.07 | 1.01 | 0.628 | 0.6 | 0.636 | 0.57 | 0.641 | 0.324 | 0.352 | 0.412 | 0.297 | 0.324 |
| EKVX | 0.395 | 0.32 | 0.332 | 0.351 | 0.327 | 0.252 | 0.189 | 0.257 | 0.21 | 0.21 | 0.217 | 0.225 | 0.232 | 0.253 | 0.236 | 0.897 | 0.723 | 0.862 | 0.831 | 0.904 |
| NCI-H522 | 0.731 | 0.656 | 0.829 | 0.687 | 0.933 |  |  |  |  |  | 0.637 | 0.686 | 0.583 | 0.625 | 0.769 | 0.729 | 0.695 | 0.728 | 0.634 | 0.66 |
| NCI-H1755 | 0.831 | 0.766 | 0.794 | 0.733 | 0.758 | 1.08 | 1.07 | 1.02 | 1.05 | 0.976 | 0.625 | 0.601 | 0.617 | 0.591 | 0.657 | 0.893 | 0.858 | 0.914 | 0.842 | 0.878 |
| NCI-H647 | 0.456 | 0.49 | 0.435 | 0.399 | 0.494 | 1.11 | 1.33 | 1.21 | 1.06 | 0.755 | 0.396 | 0.49 | 0.638 | 0.621 | 0.48 | 0.578 | 0.538 | 0.5 | 0.418 | 0.675 |
| LC-2-ad | 0.92 | 0.903 | 0.873 | 0.927 | 0.815 | 0.772 | 0.962 | 1.04 | 1.02 | 0.686 | 0.644 | 0.543 | 0.621 | 0.517 | 0.606 | 0.691 | 0.666 | 0.734 | 0.775 | 0.741 |
| NCI-H1793 | 0.458 | 0.36 | 0.388 | 0.445 | 0.445 | 0.875 | 0.658 | 0.684 | 0.657 | 0.631 | 0.41 | 0.326 | 0.368 | 0.283 | 0.515 | 0.901 | 0.928 | 0.786 | 0.873 | 1.02 |

From the supplement of paper PMC10307832
